Test results taken from US11414436B2, “Non-coordinating anion type activators containing cation having large alkyl groups” (ExxonMobil Chemical Patents Inc., priority 2018, dated 2022).
Values joined by “and” are separate entries in the source; they are usually repeats but may differ in a detail not shown here. Identical values can stand only once.

Legend:
[1] = Solubility studies of the activators (saturated solution in isohexane or methylcyclohexane); format: physicochemical; conditions: methylcyclohexane
[2] = as above; format: physicochemical; conditions: for Solubility limit in i-hexane (mM at 25° C.) / Solubility limit in i-hexane (wt % at 25° C.): isohexane; for Solubility limit in MeCy (mM at 25° C.): methylcyclohexane
Protocol: Solubility Studies of the Activators
Procedure for Solid Activators.
A saturated solution of each of the solid ammonium borate activators was prepared by stirring an excess of the activator with either isohexane or methylcyclohexane solvent for several hours at 25° C. The mixture was then filtered and a known volume of the filtrate was evaporated to dryness in a tared vial. The vial was then weighed to determine the mass of activator that was dissolved in the aliquot. The concentration of the saturated solution is presented in millimoles of activator per liter of solution (mM).
Procedure for Activators that Form Emulsions.
A saturated solution of the activator was prepared by slowly adding the solvent to a pre-weighed amount of the activator. The final volume was determined as the minimum amount of solvent required to convert the emulsion into a homogeneous solution. The concentration of the saturated solution is presented in millimoles of activator per liter of solution (mM). Alternatively, an emulsion of the activator was prepared by adding the solvent to an excess amount of activator. The resulting emulsion was separated from the undissolved solids by decanting the emulsion into a tared vial. Solvent was then added dropwise until the emulsion became homogeneous. The mass of the final solution was measured and then the solvent was evaporated to dryness to obtain the mass of the activator. The concentration of the saturated solution is presented in millimoles of activator per liter of solution (mM).

[3] = RUN B: ethylene-octene polymerization in parallel pressure reactor, activator diluent toluene or methylcyclohexane; conditions: ethylene-octene copolymerization; for activity, molecular weight and co-monomer incorporation with methyl cyclohexane versus toluene as activator diluent: FIGS. 2-4; for activity: Cat 1 (MCN-1)
Protocol: RUN B: Polymerization in Parallel Pressure Reactor.
A series of ethylene-octene polymerizations were performed in the parallel pressure reactor according to the procedure described above. […] In a typical experiment an automated syringe was used to introduce into the reactor the following reagents, if utilized, in the following order: isohexane (0.35 mL), an isohexane solution of TNOAL scavenger (0.005 M, 60 μL), additional isohexane (0.35 mL), a toluene solution of the respective polymerization catalyst (150 μL, 0.4 mM, 20 nm [cat]/100 μL [toluene]), additional isohexane (0.35 mL), a toluene or methylcyclohexane solution of the respective activator (150 μL, 0.4 mM, (20 nm [act]/100 μL[ diluent])), then additional isohexane so that the total solvent volume for each run was 5 mL. Catalyst and activator were used in a 1:1 ratio. Each reaction was performed at a specified temperature range between 50 and 120° C., typically 95° C., while applying about 100 psig of ethylene (monomer) gas. Each reaction was allowed to run for about 1 hour (˜3600 seconds) or until approximately 20 psig of ethylene gas uptake was observed, at which point the reactions were quenched with air (˜300 psig). When sufficient polymer yield was attained (e.g., at least ˜10 mg), the polyethylene product was analyzed by Rapid GPC, described below.
In a typical experiment, the anilinium borate activators were combined with toluene or methylcyclohexane as diluent and introduced to the parallel, pressure reactor via syringe. By this mechanism of activator introduction, only well dissolved activators could be delivered to the reactor providing a means to discriminate between the polymerization performance of long chain soluble anilinium borates vs. conventional anilinium borates. Following addition of activator, the catalyst Cat 1 was introduced, via syringe as well-dissolved toluene solution and the polymerization was conducted per the methodology described above.

[4] = Propylene homopolymerization in parallel pressure reactor, MCN-1 with ammonium borate activators; conditions: propylene, MCN-1 = 20 nmol, activator = 20 nmol, isohexane, TNOAL 500 nmol
Description: Polymerization in Parallel Pressure Reactor
Solvents, polymerization-grade toluene, and isohexane were supplied by ExxonMobil Chemical Company and purified by passing through a series of columns: two 500 cc Oxyclear cylinders in series from Labclear (Oakland, Calif.), followed by two 500 cc columns in series packed with dried 3 Å mole sieves (8-12 mesh; Aldrich Chemical Company), and two 500 cc columns in series packed with dried 5 Å mole sieves (8-12 mesh; Aldrich Chemical Company). 1-octene (C8) and 1-hexene (C6) (98%, Aldrich Chemical Company) were dried by stirring over NaK overnight followed by filtration through basic alumina (Aldrich Chemical Company, Brockman Basic 1).
Solutions of the metal complexes and activators were prepared in a drybox using toluene or methylcyclohexane. Concentrations were typically 0.2 mmol/L. Tri-n-octylaluminum (TNOAL, neat, AkzoNobel) was typically used as a scavenger. Concentration of the TNOAL solution in toluene ranged from 0.5 to 2.0 mmol/L.
Polymerizations were carried out in a parallel pressure reactor, as generally described in U.S. Pat. Nos. 6,306,658; 6,455,316; 6,489,168; WO 00/09255; and Murphy, V. et al. (2003) “A Fully Integrated High-Throughput Screening Methodology for the Discovery of New Polyolefin Catalysts: Discovery of a New Class of High Temperature Single-Site Group (IV) Copolymerization Catalysts,” J. Am. Chem. Soc., v. 125, pp. 4306-4317, each of which is fully incorporated herein by reference. […] Although the specific quantities, temperatures, solvents, reactants, reactant ratios, pressures, and other variables are frequently changed from one polymerization run to the next, the following describes a typical polymerization performed in a parallel pressure reactor.
Catalyst systems dissolved in solution were used in the polymerization examples below, unless specified otherwise.
RUN A: Propylene Homopolymerization (PP).
The reactor was prepared as described above and purged with propylene. For the examples in Table 2, the catalyst and activator solutions were prepared in toluene. […] Isohexane was then injected into each vessel at room temperature followed by a predetermined amount of propylene gas. The reactor was heated to the set temperature while stirring at 800 rpm, and the scavenger, activator and catalyst solutions were injected sequentially to each vessel. The polymerization was allowed to proceed as described previously.
A series of propylene polymerizations were performed in parallel pressure reactors (PPRs) developed by Symyx Technologies, Inc. In these polymerizations, the metallocene rac-dimethylsilyl-bis(indenyl)hafnium dimethyl (MCN-1) was used along with several different ammonium borate activators. Polymerizations were performed at 85° C. and 100° C.
Propylene homopolymerization (PP).
A series of propylene polymerizations were performed in the parallel pressure reactor similar to the procedure described above. In these studies rac-dimethylsilyl-bis(indenyl)hafnium dimethyl (MCN-1) was used along with ammonium borate activators.

[5] = activator diluent MeCy (methylcyclohexane)

## CCCCCCCCCC[NH+](CCCCCCCCCC)c1ccc(CCCC)cc1.Fc1c(F)c(F)c2c(F)c([B-](c3c(F)c(F)c4c(F)c(F)c(F)c(F)c4c3F)(c3c(F)c(F)c4c(F)c(F)c(F)c(F)c4c3F)c3c(F)c(F)c4c(F)c(F)c(F)c(F)c4c3F)c(F)c(F)c2c1F [DDBAH-BF28, 4-butyl-N,N-didecylbenzenaminium-BF28]
[1]
  Solubility limit in MeCy (wt % at 25° C.): 3.3 wt %
[2]
  Solubility limit in i-hexane (mM at 25° C.): 2.2 mM
  Solubility limit in i-hexane (wt % at 25° C.): 0.47 wt %
  Solubility limit in MeCy (mM at 25° C.): 17 mM

## CCCCCCCCCCCCCCCCCCc1ccc([NH+](C)C)cc1.Fc1c(F)c(F)c2c(F)c([B-](c3c(F)c(F)c4c(F)c(F)c(F)c(F)c4c3F)(c3c(F)c(F)c4c(F)c(F)c(F)c(F)c4c3F)c3c(F)c(F)c4c(F)c(F)c(F)c(F)c4c3F)c(F)c(F)c2c1F [OdDMAH-BF28, N,N-dimethyl-4-octadecylbenzenaminium-BF28]
[1]
  Solubility limit in MeCy (wt % at 25° C.): 0.3 wt %
[2]
  Solubility limit in i-hexane (mM at 25° C.): <0.1 mM
  Solubility limit in i-hexane (wt % at 25° C.): <0.1 wt %
  Solubility limit in MeCy (mM at 25° C.): 1.9 mM

## CCCCCCCCCCCCCCCCCCc1ccc([NH+](C)C)cc1.Fc1c(F)c(F)c([B-](c2c(F)c(F)c(F)c(F)c2F)(c2c(F)c(F)c(F)c(F)c2F)c2c(F)c(F)c(F)c(F)c2F)c(F)c1F [OdDMAH-BF20, N,N-dimethyl-4-octadecylbenzenaminium-BF20]
[1]
  Solubility limit in MeCy (wt % at 25° C.): 1.1 wt %
[2]
  Solubility limit in i-hexane (mM at 25° C.): 0.8 mM
  Solubility limit in i-hexane (wt % at 25° C.): 0.10 wt %
  Solubility limit in MeCy (mM at 25° C.): 7.9 mM

## CCCCCCCCCC[NH+](C)c1ccccc1.Fc1c(F)c(F)c2c(F)c([B-](c3c(F)c(F)c4c(F)c(F)c(F)c(F)c4c3F)(c3c(F)c(F)c4c(F)c(F)c(F)c(F)c4c3F)c3c(F)c(F)c4c(F)c(F)c(F)c(F)c4c3F)c(F)c(F)c2c1F [MDAH-BF28, N-decyl-N-methylanilinium-BF28]
[1]
  Solubility limit in MeCy (wt % at 25° C.): 0.21 wt %
[2]
  Solubility limit in i-hexane (mM at 25° C.): 0.9 mM
  Solubility limit in i-hexane (wt % at 25° C.): 0.12 wt %
  Solubility limit in MeCy (mM at 25° C.): 1.7 mM

## CCCCCCCCCCCCCCCCCCc1ccc([NH+](C)CCCCCCCCCCCCCCCCCC)cc1.Fc1c(F)c(F)c2c(F)c([B-](c3c(F)c(F)c4c(F)c(F)c(F)c(F)c4c3F)(c3c(F)c(F)c4c(F)c(F)c(F)c(F)c4c3F)c3c(F)c(F)c4c(F)c(F)c(F)c(F)c4c3F)c(F)c(F)c2c1F [LCSA 2]
[3]; Cat 1
  activity, molecular weight and co-monomer incorporation with methyl cyclohexane versus toluene as activator diluent: remain approximately the same
[3]; [5]
  activity: 451.4 kg/mmol/h and 388.5 kg/mmol/h and 412.4 kg/mmol/h and 455.5 kg/mmol/h
[3]; activator diluent Toluene
  activity: 477.7 kg/mmol/h and 430.3 kg/mmol/h and 405.6 kg/mmol/h and 423.2 kg/mmol/h

## CCCCCCCCCC[NH+](CCCCCCCCCC)c1ccc(C)cc1.Fc1c(F)c(F)c2c(F)c([B-](c3c(F)c(F)c4c(F)c(F)c(F)c(F)c4c3F)(c3c(F)c(F)c4c(F)c(F)c(F)c(F)c4c3F)c3c(F)c(F)c4c(F)c(F)c(F)c(F)c4c3F)c(F)c(F)c2c1F [DDTH-BF28, N,N-didecyl-4-methylanilinium-BF28]
[1]
  Solubility limit in MeCy (wt % at 25° C.): 0.63 wt %
[2]
  Solubility limit in i-hexane (mM at 25° C.): 1.8 mM
  Solubility limit in i-hexane (wt % at 25° C.): 0.35 wt %
  Solubility limit in MeCy (mM at 25° C.): 3.7 mM

## CCCCCCCCCC[NH+](CCCCCCCCCC)c1ccc(CCCC)cc1.Fc1c(F)c(F)c([B-](c2c(F)c(F)c(F)c(F)c2F)(c2c(F)c(F)c(F)c(F)c2F)c2c(F)c(F)c(F)c(F)c2F)c(F)c1F [DDBAH-BF20, 4-butyl-N,N-didecylbenzenaminium-BF20]
[1]
  Solubility limit in MeCy (wt % at 25° C.): 3.0 wt %
[2]
  Solubility limit in i-hexane (mM at 25° C.): 2.0 mM
  Solubility limit in i-hexane (wt % at 25° C.): 0.32 wt %
  Solubility limit in MeCy (mM at 25° C.): 21 mM

## CCCCCCCCCCCCCCCCCCc1ccc([NH+](CCCCCCCCCCCCCCCCCC)CCCCCCCCCCCCCCCCCC)cc1.Fc1c(F)c(F)c2c(F)c([B-](c3c(F)c(F)c4c(F)c(F)c(F)c(F)c4c3F)(c3c(F)c(F)c4c(F)c(F)c(F)c(F)c4c3F)c3c(F)c(F)c4c(F)c(F)c(F)c(F)c4c3F)c(F)c(F)c2c1F [LCSA 3]
[3]; Cat 1
  activity, molecular weight and co-monomer incorporation with methyl cyclohexane versus toluene as activator diluent: remain approximately the same
[3]; [5]
  activity: 280.6 kg/mmol/h and 257.6 kg/mmol/h and 334.9 kg/mmol/h and 360.9 kg/mmol/h
[3]; activator diluent Toluene
  activity: 290.6 kg/mmol/h and 278.0 kg/mmol/h and 289.7 kg/mmol/h and 278.3 kg/mmol/h

## N,N-dimethyl anilinium tetrakis(perfluorobiphenyl) [C3, reference compound]
[3]; Cat 1, activator in methylcyclohexane
  quantity of polymer obtained with methylcyclohexane as diluent: insufficient for analysis
[3]; activator diluent Toluene
  activity: 692.3 kg/mmol/h and 711.1 kg/mmol/h and 841.8 kg/mmol/h and 803.7 kg/mmol/h

## CCCCCCCCCCCCCCCCCC[NH+](C)c1ccc(CCCC)cc1.Fc1c(F)c(F)c2c(F)c([B-](c3c(F)c(F)c4c(F)c(F)c(F)c(F)c4c3F)(c3c(F)c(F)c4c(F)c(F)c(F)c(F)c4c3F)c3c(F)c(F)c4c(F)c(F)c(F)c(F)c4c3F)c(F)c(F)c2c1F [LCSA 1]
[3]; Cat 1
  activity, molecular weight and co-monomer incorporation with methyl cyclohexane versus toluene as activator diluent: remain approximately the same
[3]; [5]
  activity: 332.7 kg/mmol/h and 377.7 kg/mmol/h and 393.6 kg/mmol/h and 367.2 kg/mmol/h
[3]; activator diluent Toluene
  activity: 413.4 kg/mmol/h and 510.6 kg/mmol/h and 426.4 kg/mmol/h and 452.7 kg/mmol/h

## CCCCCCc1ccc([NH+](C)C)cc1.Fc1c(F)c(F)c([B-](c2c(F)c(F)c(F)c(F)c2F)(c2c(F)c(F)c(F)c(F)c2F)c2c(F)c(F)c(F)c(F)c2F)c(F)c1F [Hex-DMAH-BF20, 4-hexyl-N,N-dimethylanilinium-BF20]
[4]; 85 °C, 135 psi
  activity: 150 kg/mmol/h and 163 kg/mmol/h and 192 kg/mmol/h
[4]; 100 °C, 150 psi
  activity: 47 kg/mmol/h and 81 kg/mmol/h and 75 kg/mmol/h
